1 compound from patent US20210207095A1, “METHODS OF ACTIVATING CELLS VIA PTP 1B INHIBITION” (Monash University, priority 2018, published 2021) can be followed below.

A short description of series [1]: Body weight, food intake and body composition of tumour-bearing mice treated with PTP1B inhibitor. It counts as in vivo. The procedure: (§1) FIG. 20. PTP1B-specific inhibitor MSI-1436 (Trodusquemine) repressed tumor growth. 1×10^6 AT-3 OVA breast cancer cells suspended in 20 μl 1×DPBS were transplanted into mammary fat pads of T cell-specific PTP1B-deficient (Lck-Cre; Ptpn1^fl/fl; n=16) and PTP1B wild-type (Ptpn1^fl/fl; n=16) female mice. 17 days after the tumor cell transplantation, MSI-1436 was applied to recipient mice through intraperitoneal injection in 100 μl 0.9% (v/v) saline with the concentration of 10 mg per kilogram body weight. 8 out 16 mice from both Ptpn1^fl/fl and Lck-Cre; Ptpn1^fl/fl recipients were treated every three days with MSI-1436 before the start of the dark cycle. […] This was accompanied by a reduction in food intake and adiposity but no changes in lean mass (data not shown). Representative results (means±SEM) for the indicated numbers of mice and experiments are shown. Significances were determined using 2-tailed Mann-Whitney U Test.

Series [2] has as its system AT-3 OVA breast cancer cells. The series is described as follows: Syngeneic AT-3 OVA breast cancer tumour growth in mice treated with PTP1B inhibitor. It counts as in vivo. As to conditions: for Tumor growth: AT-3 OVA cells in mammary fat pads, Ptpn1fl/fl and Lck-Cre;Ptpn1fl/fl female mice, 10 mg/kg i.p. every three days from day 17, vs untreated Ptpn1fl/fl, p<0.0001, 2-way ANOVA. The procedure:
as §1
Breast cancer cells were transplanted into mammary fat pads of mice that were “globally” ptp1b-deficient (Ptpn1^−/−) or T-cell specific ptp1b-deficient (Lck-Cre; Ptpn1^fl/fl). Tumour growth was monitored for 28 days after transplantation. […] (FIG. 18A). […] (FIG. 19A).

Turning to `CC(C)[C@@H](CC[C@@H](C)[C@H]1CC[C@H]2[C@@H]3[C@H](O)C[C@H]4C[C@@H](NCCCNCCCCNCCCN)CC[C@]4(C)[C@H]3CC[C@]12C)OS(=O)(=O)O` [MSI-1436, Trodusquemine], in series [1] (Lck-Cre;Ptpn1fl/fl or Ptpn1fl/fl mice, 10 mg/kg i.p. every three days, p<0.0001), the Body weight entry is “significant weight loss”. In addition, in series [1] (treated mice, data not shown), the Adiposity entry was “reduction”, the Food intake entry was “reduction” and the Lean mass result is listed as “no changes”. Moreover, the Tumor growth result in series [2] (10 mg/kg) is on record as “significantly suppressed”. For the same compound, the Tumor growth entry in series [2] (listed as MSI1436, 10 mg/kg) was “repressed the growth”. The “Tumour burden in mice lacking PTP1B in T cells” value in series [2] (Lck-Cre;Ptpn1fl/fl mice, treatment once every 3 days) was “did not lead to further reductions in tumour burden”. Moreover, the Tumor burden result in series [2] (MSI-1436-treated Ptpn1fl/fl mice vs non-treated counterparts, 10 mg/kg i.p. every three days, p<0.0001) was “significant reduction of tumor burden”.
